In patent publication US9486430B2, “Treatment of neurodegenerative disease” (priority 2010, dated 2016):

Assays:
[1] = system: patient with Parkinson's Disease; assay: Tolerability of other drugs and supplements in the Parkinson's Disease patient
From the text: Patients on the anticoagulant warfarin are expected to have a reading between 2 and 3, with three being the least coagulated.

[2] = mice; cited from earlier work
[3] = Kidney function test in the Parkinson's Disease patient; type: in vivo, human; settings: patient on t-RES; data not shown
[4] = International Normalized Ratio (INR) anticoagulation test in the Parkinson's Disease patient; type: in vivo, human; settings: for INR: ref. range 0.8-1.2
From the text: (§1) As described in detail below, the parameters used to measure these findings were basic observations of speech, gait, overall function and tremor before and after administering t-RES over a period of months using the author's Tremor Rating Scale (TRS) in addition to the UPDRS (Fahn, et al., Recent Developments in Parkinson's Disease, 1989). […] The International Normalized Ratio is a measure of clotting speed in the blood used especially as an indicator of Warfarin levels in the blood in patients with Atrial Fibrillation who need reduced clotting probability, to prevent strokes and pulmonary embolisms—but not so reduced as to increase the chances of hemorrhage, especially from trauma. The INR in a normal person ranges from 0.8 to 1.2 in an A-Fib patient the INR should be maintained between 2.0 and 3.0 (Avery, et al., Clin. Pharmacol. Ther., 2011).

[5] = system: healthy volunteers; settings: cited from earlier work; for adverse effects in healthy volunteers: up to 5 g (5000 mg per day)
[6] = system: patient with stage four idiopathic Parkinson's Disease; assay: Observation of a stage four Parkinson's Disease patient on t-RES with SINEMET (Tremor Rating Scale, UPDRS); type: in vivo, human
From the text: as §1
In a particular embodiment, the effect of t-RES on a patient with stage four idiopathic Parkinson's Disease was observed. The patient was followed closely for fourteen months while receiving t-RES. t-RES was administered daily and changes in speech, handwriting, gait, leg movement, and dyskinesias were observed. […] Handwriting samples were taken before and after taking t-RES.
Starting dose of ½ pill 3 times/day SINEMET® 25/100 and 4 pills/day SINEMET® CR 25/100. Doses were given every four hours starting at 7 am.
Eleven months into the study, patient was taking 500 mg t-RES/day, considered the lowest mega-dose, plus the added 100 mg general polyphenols which are mixed into each 125 mg t-RES capsule.
This was achieved using a scale devised by the inventor, with three states: tremor, no dyskinesia (T, ND=0); non-tremor, no dyskinesia (NT, ND=1); and dyskinesia, no tremor (D, NT=2). The patient's state was recorded every half hour from 7 am to 10 pm by the author and caregivers on all days practicable.
Daily numbers from the inventor's 0-2 Tremor Rating Scale (TRS) scale were then tallied and entered into the Unified Parkinson's Disease Rating Scale (UPDRS) for comparison.
The doses of t-RES, SINEMET® and other supplements were also noted, with adjustments being made as necessary. The results were then examined for overall changes observed when the t-RES dose was increased every few months as shown in FIG. 2.

[7] = system: monoamine oxidase A (MAO-A), MAO-B; settings: rat brain; cited from earlier work
[8] = system: amyloid plaques in mouse brain; settings: dietary supplementation, transgenic model of Alzheimer's Disease; cited from earlier work
[9] = carbidopa with levodopa; cited from earlier work
[10] = system: patients; settings: some patients; cited from earlier work

With `C#CCN[C@@H]1CCc2ccccc21` [rasagiline] the “tolerability in the patient” value ([1]; human, in vivo) was “neither was tolerated”.

For `Cc1ccc(NC(=O)c2ccc(CN3CCN(C)CC3)cc2)cc1Nc1nccc(-c2cccnc2)n1` [imatinib], the “crossing of the blood-brain barrier” value [2] is listed as “not able to cross the blood-brain barrier”.

With `Oc1ccc(/C=C/c2cc(O)cc(O)c2)cc1` [t-RES, 3,5,4′-trihydroxy-trans-stilbene] the Kidney function [3] was “within the normal range”, the INR ([4]; 250 mg t-Res + 81 mg/day aspirin, Oct. 26, 2010) was 1 and the “INR score (blood coagulation)” value ([4]; 500 mg followed by 625 mg t-RES, eight and 12 months into the study, normal range 0.8-1.2) was 1. The INR ([4]; 500 mg t-Res, Mar. 14, 2011) was 1.0, the INR ([4]; 625 mg t-Res, Jul. 6, 2011) was 1.0 and the “adverse effects in healthy volunteers” value [5] was “no adverse effects”. The “Total Levodopa per day” value ([6]; 14 months post t-RES (625 mg/day), September 2011, 550 mg before t-RES) was “day = 500 mg max”, the “tremors and dyskinesias, share of the day” value ([6]; UPDRS ratings, t-RES plus SINEMET, FIG. 2, rarely over) was ≤ 25 % of the day and the “patient's "on" time, share of the day” value ([6]; UPDRS-based, t-RES plus SINEMET, FIG. 2) was 75 % of the day. The “dyskinesias on t-RES dose increase” value ([6]; each increase of t-RES by 125 mg/day, with SINEMET, FIG. 2, FIG. 3) was “dyskinesias increased”, the “need for SINEMET per day after starting t-RES” value ([6]; first few days of t-RES, from 1½ tablets per day (150 mg levodopa) to one tablet per day) was 100 mg levodopa and the cognition and speech ([6]; following first administration of t-RES (125 mg capsule)) was “overnight improvement in cognition and speech”. For the same compound, the hallucinations ([6]; soon after beginning t-RES) was “completely eliminated on most days”, the “inhibition of MAO-A compared with MAO-B” value [7] was “slightly more than MAO-B” and the “amyloid plaques in mouse brain” value [8] was “reduce the number of amyloid plaques”.

In the case of `C#CCN(C)[C@H](C)Cc1ccccc1` [selegiline], the “tolerability in the patient” value ([1]; therapy in conjunction with SINEMET) is reported as “neither was tolerated”.

For `Oc1ccc(C=Cc2cc(O)cc(O)c2)cc1` [resveratrol, 3,5,4′-trihydroxy-stilbene], the reported adverse events ([5]; 2000 mg twice daily, two-week study, eight healthy adults) is listed as “minor diarrhea” and the “adverse effects in healthy volunteers” value [5] is listed as “no adverse effects”.

With `N[C@@H](CCC(=O)N[C@@H](CS)C(=O)NCC(=O)O)C(=O)O` [glutathione] the “symptoms on reducing glutathione” value ([6]; glutathione reduced while on t-RES and SINEMET) was “worsening of symptoms”.

In the case of `C[C@@](Cc1ccc(O)c(O)c1)(NN)C(=O)O` [Carbidopa, carbidopa], the “reduction of the amount of levodopa required to produce a given response” value [9] is listed as “about 75%”.

For `C#CCN(C)[C@H](C)Cc1ccccc1` [deprenyl], the extension of lifespan [10] is given as “up to 10 years”.
